Measurements: patent US10093684B2, “Substituted imidazo[1,2-a]pyrazines as Syk inhibitors” (Gilead Connecticut, Inc., priority 2008, dated 2018)

- melting point: > 250 °C
Structure (SMILES): CC(C)n1cc(Nc2nc(-c3ccc4cn[nH]c4c3)cn3ccnc23)cn1 [Compound 5, 6-(1H-indazol-6-yl)-N-(1-isopropyl-1H-pyrazol-4-yl)imidazo[1,2-a]pyrazin-8-amine]
